In patent US20260248771A1, “VALBENAZINE, A VMAT2 INHIBITOR, AS A FREE BASE A TOSYLATE OR DITOSYLATE SALT, FOR USE IN THE TREATMENT OF CHOREA ASSOCIATED WITH HUNTINGTON'S DISEASE” (Neurocrine Biosciences, Inc., priority 2022, published 2026):

Assays:
subjects with HD [1] = assay: Phase 3 placebo-controlled study: UHDRS total maximal chorea (TMC) score; assay type: in vivo, human; conditions: for TMC score LS mean difference between treatment groups (valbenazine minus placebo): change from screening period baseline
From the text: As used herein, “Unified Huntington Disease Rating Scale” or “UHDRS” is the standard clinical assessment tool in Huntington disease. The UHDRS is divided into four domains: motor performance, cognitive function, behavioral abnormalities, and functional abilities. The motor section consists of 31 items assessing oculomotor, bradykinesia/rigidity, dystonia, chorea, and gait/balance. The items are rated from zero to four, with zero indicating normal findings and four indicating severe abnormalities. The range of the Total Motor Score (TMS) is 0 to 124, with higher scores indicating more severe motor impairment. The cognitive component includes the verbal fluency test, the symbol digit modalities test, and the Stroop test (color naming, word reading, and interference). Lower scores indicate worse cognitive performance. The behavioral assessment measures the frequency and severity of 11 items, which are rated from zero (almost never/absent) to four (almost always/severe). The items assess depression, anxiety, aggression, psychosis, and other behavioral abnormalities. The behavioral score ranges from 0 to 88, with higher scores indicating more severe psychiatric abnormalities. The functional domain comprises three components, namely the total functional capacity (TFC), the functional assessment scale (FAS), and the independence scale (IS). The TFC consists of five items (occupation, finances, domestic chores, activities of daily living, and care level) and ranges from 0 to 13. The FAS includes 25 yes/no questions about common daily tasks (range 0-25). The Independence Score (IS) measures the level of independence by one single score between 10 and 100. For all functional scores, lower scores indicate a worse function. See, Huntington Study Group, Unified Huntington Disease Rating Scale: reliability and consistency. Mov Disord. 1996; 11:136-142, which is incorporated by reference in its entirety.
A Phase 3, randomized, double-blind, placebo-controlled study to evaluate the efficacy, safety, and tolerability of once-daily valbenazine in subjects with HD was conducted. The study included a 4-week screening period, an 8-week dose-adjustment period, a 4-week maintenance period, and a final study visit 2 weeks following the final dose of study drug.
Valbenazine was supplied as orally administered capsules containing 20 or 40 mg of valbenazine (free base equivalents as the ditosylate salt). Subjects must swallow the capsules with approximately 4 ounces of water or other liquid, with or without food.
During the dose-adjustment period, the investigator could increase a subject's dose to the next dose level if, in the investigator's opinion, the subject has tolerated the study drug at the current dose. Doses were adjusted in a blinded manner; subjects receiving placebo will undergo the dose-adjustment process but will continue to receive placebo. Dose increases were allowed at visits at the end of Weeks 2, 4, and 6. If the subject had not tolerated the current dose, the investigator could decrease the subject's dose at any time during the dose adjustment period (the 40 mg dose can be decreased to 20 mg). Doses were to be decreased 1 dose level at a time and subjects could have multiple dose decreases during the dose-adjustment period; subjects who were unable to tolerate the 20 mg dose could remain in the study but study drug dosing was discontinued.
During the maintenance period (beginning after the Week 8 visit through the end of Week 12), the subject's dose was maintained. If the subject could not tolerate the maintenance dose, the investigator could reduce the subject's dose a single time by 1 dose level (unless the subject is receiving 20 mg); if the subject could not tolerate the lower dose, he/she could remain in the study but study drug dosing was discontinued.
The primary endpoint for the study was change from baseline to maintenance in the Unified Huntington Disease Rating Scale total maximal chorea (TMC). […]

subjects with HD [2] = assay: Phase 3 study: Patient Global Impression of Severity (PGI-S); assay type: in vivo, human
From the text: Exploratory endpoints included: • Wearable movement sensors (in select sites; optional participation) using MC10 Inc., BIOSTAMP® NPOINT® system • Huntington Disease Health Index • Changes from the screening period baseline to each postbaseline study visit (Weeks 2 through 12) in the TMC based on site assessments • Changes from the screening period baseline to maintenance (the average of the Week 10 and Week 12 assessments) in the TMC based on video recording central rater assessments • CGI-C response at Weeks 2 through 10 • PGI-C response at Weeks 2 through 10 • The change from baseline to Weeks 4, 8, and 10 in the Neuro-QoL Upper Extremity Function T-score. • The change from baseline to Weeks 4, 8, and 10 in the Neuro-QoL Lower Extremity Function T-score • CGI-S at Weeks 2 through 12 • PGI-S at Weeks 2 through 12 • SF-36 at Week 12 • HD-HI at Week 10 and Week 12 • EQ-5D-5L at Week 10 and Week 12 • UHDRS scores for motor, behavior, and functional capacity assessment at Weeks 2 through 12 • Other UHDRS scores including functional assessment and independence scale at Week 12 • AS at Week 12 • Change from screening period in physical activity by movement sensors at the Week 10 visit period
Subjects rated the severity of their chorea at scheduled visits on a 5-point scale. The PGI-S was analyzed using the same methods as the CGI-S.

COc1cc2c(cc1OC)[C@H]1C[C@@H](OC(=O)[C@@H](N)C(C)C)[C@H](CC(C)C)CN1CC2 [Valbenazine, (S)-2-amino-3-methyl-butyric acid (2R,3R,11bR)-3-isobutyl-9,10-dimethoxy-1,3,4,6,7,11b-hexahydro-2H-pyrido[2,1-a]isoquinolin-2-yl ester]
onset of improvement of chorea symptoms (TMC by study visit) (subjects with HD [1]; FIG. 4, post-hoc analysis vs placebo): noted as early as week 2 | TMC score LS mean difference between treatment groups (valbenazine minus placebo) (subjects with HD [1]; Week 2, on-site assessments): minus placebo) were as follows: Week 2 (−1.26 [95% CI: −2.18, −0.34], | TMC score LS mean difference between treatment groups (valbenazine minus placebo) (subjects with HD [1]; Week 4, on-site assessments): nominal p = 0.0077), Week 4 (−2.05 [95% CI: −3.12, −0.98], | TMC score LS mean difference between treatment groups (valbenazine minus placebo) (subjects with HD [1]; Week 6, on-site assessments): nominal p = 0.0002), Week 6 (−1.69 [95% CI: −2.83, −0.55], nominal | TMC score LS mean difference between treatment groups (valbenazine minus placebo) (subjects with HD [1]; Week 8, on-site assessments): p = 0.0041), Week 8 (−2.29 [95% CI: −3.46, −1.13], nominal | TMC score LS mean difference between treatment groups (valbenazine minus placebo) (subjects with HD [1]; Week 10, on-site assessments): p = 0.0002); Week 10 (−3.10 [95% CI: −4.36, −1.84], nominal | TMC score LS mean difference between treatment groups (valbenazine minus placebo) (subjects with HD [1]; Week 12, on-site assessments): p < 0.0001), and Week 12 (−3.22 [95% CI: −4.53, −1.91], nominal | placebo-adjusted mean reduction in TMC score (subjects with HD [1]; baseline to maintenance, vs placebo): 3.2 units | LS mean change from screening period baseline to maintenance in TMC scores (subjects with HD [1]; central video rater assessments, valbenazine group): in TMC scores as assessed by the central video raters was −3.51 | TMC score treatment difference, screening period baseline to maintenance (subjects with HD [1]; central video rater assessments, valbenazine vs placebo): of −2.59 (95% CI: −3.76, −1.41); p < 0.0001 (nominal), and was consistent | TMC CFSPB @ Maintenance, LS Mean (subjects with HD [1]; change from screening period baseline to maintenance (average of Week 10 and Week 12), on-site assessments, once-daily valbenazine up to 80 mg, N=64): −4.6 | TMC CFSPB @ Maintenance, LS Mean, Difference (subjects with HD [1]; valbenazine vs placebo, on-site assessments): −3.16 | PGI-S: proportion of valbenazine-treated subjects who had no chorea symptoms (subjects with HD [2]; Week 12): chorea symptoms increased to about 27% from about 9% at baseline, | PGI-S: proportion of valbenazine-treated subjects with moderate symptoms (subjects with HD [2]; Week 12): ~29% | PGI-S: severe or very severe symptoms (subjects with HD [2]; Week 12): No valbenazine-treated subject had severe | PGI-S: proportion of valbenazine-treated subjects with mild symptoms (subjects with HD [2]; Week 12 (remained consistent from baseline)): 45%), and the proportion with moderate symptoms decreased from
